{"source": "PubChem BioAssay AID1845195", "about": "(Molecular Pharmacology Branch, DTP, NCI, 2023)", "test_system": "156681-154-R-J1 tumor spheroid viability", "assay": "Anticancer human tumor 156681-154-R-J1 patient-derived melanoma cell line growth inhibition", "conditions": "spheroids with HUVEC and MSC; for viability, T/C: stronger effect = lower value", "method_in_brief": "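Complex tumor spheroids combined malignant cells with endothelial cells and mesenchymal stem cells. DNA-damaging drugs and DNA repair inhibitors were tested alone and in combination, at half-log dilutions down from clinical Cmax (top 10 microM if Cmax unknown), 0.25% DMSO final.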", "note": "Where “and” joins values, the source holds several entries; their conditions need not be identical. Equal values may be shown once."}
{"compound": "Cc1cc(C)c(CNC(=O)c2cc(-c3ccc(CN4CCOCC4)cc3)cc3c2cnn3C2CCCC2)c(=O)[nH]1", "note": "+ Cn1nnc2c(C(N)=O)ncn2c1=O;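 further: spheroids exposed to compounds for 7 days before readout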;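 on viability, T/C: percent of vehicle control viability where 100% = DMSO-treated spheroids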", "values": [{"measurement": "IC50", "setting": "curve of first compound, second compound 1 µM", "value": "> 10", "unit": "µM"}, {"measurement": "IC50", "setting": "curve of first compound, second compound 3.16 µM", "value": "> 10", "unit": "µM"}, {"measurement": "IC50", "setting": "curve of first compound, second compound 10 µM", "value": "> 10", "unit": "µM"}, {"measurement": "IC50", "setting": "curve of first compound, second compound 31.6 µM", "value": "> 10", "unit": "µM"}, {"measurement": "IC50", "setting": "curve of first compound, second compound 100 µM", "value": "> 10", "unit": "µM"}, {"measurement": "viability, T/C", "setting": "second compound 1 µM, first compound 0.0316 µM", "value": 72.6, "unit": "%"}, {"measurement": "viability, T/C", "setting": "second compound 1 µM, first compound 0.1 µM", "value": 107, "unit": "%"}, {"measurement": "viability, T/C", "setting": "second compound 1 µM, first compound 0.316 µM", "value": 90.2, "unit": "%"}, {"measurement": "viability, T/C", "setting": "second compound 1 µM, first compound 1 µM", "value": 92.4, "unit": "%"}, {"measurement": "viability, T/C", "setting": "second compound 1 µM, first compound 3.16 µM", "value": 79.6, "unit": "%"}, {"measurement": "viability, T/C", "setting": "second compound 1 µM, first compound 10 µM", "value": 82.4, "unit": "%"}, {"measurement": "viability, T/C", "setting": "second compound 3.16 µM, first compound 0.0316 µM", "value": 90.6, "unit": "%"}, {"measurement": "viability, T/C", "setting": "second compound 3.16 µM, first compound 0.1 µM", "value": 72.7, "unit": "%"}, {"measurement": "viability, T/C", "setting": "second compound 3.16 µM, first compound 0.316 µM", "value": 83.7, "unit": "%"}, {"measurement": "viability, T/C", "setting": "second compound 3.16 µM, first compound 1 µM", "value": 87.2, "unit": "%"}, {"measurement": "viability, T/C", "setting": "second compound 3.16 µM, first compound 3.16 µM", "value": 68.8, "unit": "%"}, {"measurement": "viability, T/C", "setting": "second compound 3.16 µM, first compound 10 µM", "value": 84.4, "unit": "%"}, {"measurement": "viability, T/C", "setting": "second compound 10 µM, first compound 0.0316 µM", "value": 105, "unit": "%"}, {"measurement": "viability, T/C", "setting": "second compound 10 µM, first compound 0.1 µM", "value": 73.3, "unit": "%"}, {"measurement": "viability, T/C", "setting": "second compound 10 µM, first compound 0.316 µM", "value": 72.4, "unit": "%"}, {"measurement": "viability, T/C", "setting": "second compound 10 µM, first compound 1 µM", "value": 67.1, "unit": "%"}, {"measurement": "viability, T/C", "setting": "second compound 10 µM, first compound 3.16 µM", "value": 69.2, "unit": "%"}, {"measurement": "viability, T/C", "setting": "second compound 10 µM, first compound 10 µM", "value": 77.5, "unit": "%"}, {"measurement": "viability, T/C", "setting": "second compound 31.6 µM, first compound 0.0316 µM", "value": 74.2, "unit": "%"}, {"measurement": "viability, T/C", "setting": "second compound 31.6 µM, first compound 0.1 µM", "value": 65.7, "unit": "%"}, {"measurement": "viability, T/C", "setting": "second compound 31.6 µM, first compound 0.316 µM", "value": 50.5, "unit": "%"}, {"measurement": "viability, T/C", "setting": "second compound 31.6 µM, first compound 1 µM", "value": 63, "unit": "%"}, {"measurement": "viability, T/C", "setting": "second compound 31.6 µM, first compound 3.16 µM", "value": 51.9, "unit": "%"}, {"measurement": "viability, T/C", "setting": "second compound 31.6 µM, first compound 10 µM", "value": 58.4, "unit": "%"}, {"measurement": "viability, T/C", "setting": "second compound 100 µM, first compound 0.0316 µM", "value": 51.2, "unit": "%"}, {"measurement": "viability, T/C", "setting": "second compound 100 µM, first compound 0.1 µM", "value": 61.9, "unit": "%"}, {"measurement": "viability, T/C", "setting": "second compound 100 µM, first compound 0.316 µM", "value": 67.2, "unit": "%"}, {"measurement": "viability, T/C", "setting": "second compound 100 µM, first compound 1 µM", "value": 52.3, "unit": "%"}, {"measurement": "viability, T/C", "setting": "second compound 100 µM, first compound 3.16 µM", "value": 56, "unit": "%"}, {"measurement": "viability, T/C", "setting": "second compound 100 µM, first compound 10 µM", "value": 55.6, "unit": "%"}]}
{"compound": "CNCc1ccc(-c2cc(-c3nc(-c4ccc(S(=O)(=O)C(C)C)cc4)cnc3N)on2)cc1", "values": [{"measurement": "viability, T/C", "setting": "compound 0.00949 µM", "value": "96.4% and 93.6% and 109%"}, {"measurement": "viability, T/C", "setting": "compound 0.03 µM", "value": "103% and 118% and 115%"}, {"measurement": "viability, T/C", "setting": "compound 0.0949 µM", "value": "95.8% and 90.1% and 96.7%"}, {"measurement": "viability, T/C", "setting": "compound 0.3 µM", "value": "89% and 71.3% and 84.3%"}, {"measurement": "viability, T/C", "setting": "compound 0.949 µM", "value": "59.4% and 53.5% and 57.1%"}, {"measurement": "viability, T/C", "setting": "compound 3 µM", "value": "24.5% and 15.9% and 19.6%"}, {"measurement": "IC50", "setting": "curve of compound", "value": "1.29 µM and 0.931 µM and 1.17 µM"}]}
{"compound": "[2H]c1nc(C)nc([2H])c1-c1cc(NC[C@@H](C)c2cccc3c(C(=O)NC)ccnc23)ncn1", "note": "+ COc1cc2c(cc1O)CCNC21CSC2c3c(OC(C)=O)c(C)c4c(c3C(COC1=O)N1C(O)C3Cc5cc(C)c(OC)c(O)c5C(C21)N3C)OCO4", "values": [{"measurement": "IC50", "setting": "curve of first compound, second compound 30 pM", "value": "> 10", "unit": "µM"}, {"measurement": "IC50", "setting": "curve of first compound, second compound 94.9 pM", "value": "> 10", "unit": "µM"}, {"measurement": "IC50", "setting": "curve of first compound, second compound 0.0003 µM", "value": "> 10", "unit": "µM"}, {"measurement": "IC50", "setting": "curve of first compound, second compound 0.000949 µM", "value": "< 0.0316", "unit": "µM"}, {"measurement": "IC50", "setting": "curve of first compound, second compound 0.003 µM", "value": "< 0.0316", "unit": "µM"}, {"measurement": "viability, T/C", "setting": "second compound 30 pM, first compound 0.0316 µM", "value": 91.3, "unit": "%"}, {"measurement": "viability, T/C", "setting": "second compound 30 pM, first compound 0.1 µM", "value": 96, "unit": "%"}, {"measurement": "viability, T/C", "setting": "second compound 30 pM, first compound 0.316 µM", "value": 109, "unit": "%"}, {"measurement": "viability, T/C", "setting": "second compound 30 pM, first compound 1 µM", "value": 95.1, "unit": "%"}, {"measurement": "viability, T/C", "setting": "second compound 30 pM, first compound 3.16 µM", "value": 92.3, "unit": "%"}, {"measurement": "viability, T/C", "setting": "second compound 30 pM, first compound 10 µM", "value": 94, "unit": "%"}, {"measurement": "viability, T/C", "setting": "second compound 94.9 pM, first compound 0.0316 µM", "value": 89.6, "unit": "%"}, {"measurement": "viability, T/C", "setting": "second compound 94.9 pM, first compound 0.1 µM", "value": 111, "unit": "%"}, {"measurement": "viability, T/C", "setting": "second compound 94.9 pM, first compound 0.316 µM", "value": 105, "unit": "%"}, {"measurement": "viability, T/C", "setting": "second compound 94.9 pM, first compound 1 µM", "value": 85, "unit": "%"}, {"measurement": "viability, T/C", "setting": "second compound 94.9 pM, first compound 3.16 µM", "value": 90.4, "unit": "%"}, {"measurement": "viability, T/C", "setting": "second compound 94.9 pM, first compound 10 µM", "value": 76.8, "unit": "%"}, {"measurement": "viability, T/C", "setting": "second compound 0.0003 µM, first compound 0.0316 µM", "value": 79.7, "unit": "%"}, {"measurement": "viability, T/C", "setting": "second compound 0.0003 µM, first compound 0.1 µM", "value": 86.6, "unit": "%"}, {"measurement": "viability, T/C", "setting": "second compound 0.0003 µM, first compound 0.316 µM", "value": 80, "unit": "%"}, {"measurement": "viability, T/C", "setting": "second compound 0.0003 µM, first compound 1 µM", "value": 75.3, "unit": "%"}, {"measurement": "viability, T/C", "setting": "second compound 0.0003 µM, first compound 3.16 µM", "value": 81.9, "unit": "%"}, {"measurement": "viability, T/C", "setting": "second compound 0.0003 µM, first compound 10 µM", "value": 62.4, "unit": "%"}, {"measurement": "viability, T/C", "setting": "second compound 0.000949 µM, first compound 0.0316 µM", "value": 6.44, "unit": "%"}, {"measurement": "viability, T/C", "setting": "second compound 0.000949 µM, first compound 0.1 µM", "value": 4.98, "unit": "%"}, {"measurement": "viability, T/C", "setting": "second compound 0.000949 µM, first compound 0.316 µM", "value": 4.24, "unit": "%"}, {"measurement": "viability, T/C", "setting": "second compound 0.000949 µM, first compound 1 µM", "value": 4.33, "unit": "%"}, {"measurement": "viability, T/C", "setting": "second compound 0.000949 µM, first compound 3.16 µM", "value": 3.62, "unit": "%"}, {"measurement": "viability, T/C", "setting": "second compound 0.000949 µM, first compound 10 µM", "value": 3.23, "unit": "%"}, {"measurement": "viability, T/C", "setting": "second compound 0.003 µM, first compound 0.0316 µM", "value": 0.26, "unit": "%"}, {"measurement": "viability, T/C", "setting": "second compound 0.003 µM, first compound 0.1 µM", "value": 0.3, "unit": "%"}, {"measurement": "viability, T/C", "setting": "second compound 0.003 µM, first compound 0.316 µM", "value": 0.22, "unit": "%"}, {"measurement": "viability, T/C", "setting": "second compound 0.003 µM, first compound 1 µM", "value": 0.17, "unit": "%"}, {"measurement": "viability, T/C", "setting": "second compound 0.003 µM, first compound 3.16 µM", "value": 0.17, "unit": "%"}, {"measurement": "viability, T/C", "setting": "second compound 0.003 µM, first compound 10 µM", "value": 0.28, "unit": "%"}]}
